# According to US6417159B1 (Queen's University at Kingston, priority 1996, dated 2002):
# What was measured:
# [1] = test system: embryonic 19 day rat DRG neurons; test: NGF-mediated neurite growth by ED19 rat DRG neurons; type: cell-based
# Procedure: Dissociated cells enriched for sensory neurons from DRG of ED8 chick or ED19 rat were prepared as described in detail previously (Sutter et al., 1979a). ED19 rat DRG dissociates were not pre-plated pror to bioassay. Cells were seeded into wells of Terasaki plates previously treated with poly-D-lysine at 700-900 per well in supplemented Ham's F12 medium with 2.5% fetal calf serum and NGF at concentrations between 0.04 and 40 pM. The cells were incubated with the additives as described at 37° C., 5% CO2, and scored at various times for neurite growth by counting all cells on the lower horizontal surface of the wells, which is approximately 15% of the surface area of the top of the tapered wells.
# A Leitz Diavert inverted microscope with phase optics was used to score neurite growth. For both PC12 cells and sensory neurons, a neurite was scored as such if its calibre from origin to terminal was approximately the same and the length was equal to or greater than 1.5 cell body diameters.
# PC12 cells [2] = test: Uptake of [125I]NGF into PC12 cells; type: cell-based, rat; conditions: 20 pM or 0.2 nM [125I]NGF; saturating R3
# Procedure: (§1) PC12 cells were removed from culture dishes with CMF, washed, and incubated at a concentration of 10^6 per ml in Hepes-Krebs-Ringer (HKR) buffer buffer with 1 mg·ml^−1 BSA for 90 minutes at 37° C. in the presence of 40 pM [^125I]NGF in the absence and presence of excess unlabeled NGF, and in the absence and presence of R3 peptide. Aliquots of 100 μl were removed in replicates and mircocentrifuged at 10,000×g for 1 minute. Supernatants were removed, tips were cut from the microcentrifuge tube and counted in a gamma counter. Specific binding was defined as the difference between binding of the ligand in the absence and presence of unlabeled NGF, and fractional specific binding in the absence and presence of R3 peptide was compared. Studies of [^125I]NGF uptake into PC12 and PC12^nnr5 cells were carried out in the absence and presence of 10 μM R3 peptide and following a 24-hour exposure of PC12 cultures to 10 μM R3 peptide. Cells were eposed to 20 pM or 0.2 nM [^125I]NGF for periods of time up to 240 minutes (steady state) at 37° C. The cells were then briefly acid-washed as described by Bernd and Greene (1984), and aliquots were prepared for gamma counting as described. NGF was radioiodinated as described in Sutter et al. (1979b).
# PC12^nnr5 cells = test: Acid phosphatase assay of cell survival, PC12nnr5 cells; type: cell-based, rat; conditions: PC12nnr5 (low-TrkA), serum-free conditions
# Procedure: This is a colorimetric assay which measures the lysosomal enzyme acid phosphatase to determine cell number (Connolly et al., 1986) modified by Ueda et al. (1994) for use with cultured neuronal cells. Medium was removed gently from PC12 or PC12^nnr5 cells cultured in 96 well plates and well were washed once with 200 μl PBS. Then 100 μl of buffer containing 0.1M sodium acetate pH 5.5, 0.1% TRITON™ X-100, and 10 mM p-nitrophenyl phosphate (Sigma 104 phosphatase substrate) was added to each well. Plates were placed in a 37° C., 5% CO2 incubator for 3 hours. The reaction was stopped by the addition of 10 μl/well of 1N sodium hydroxide and the colour development measured at 405 nm using a microplate reader (Titertek). The first column on each plate contained no cells (buffer only) and was used as a blank. The relationship between cell number and enzyme activity was linear over the range 1000 to 15,000 cells.
# To exclude the possibility that the effects of R3 on neurite growth in the experiments described above were indirect and mediated by an influence on cell survival, PC12 and PC12^nnr5 cells were exposed to serum free conditions in the absence and presences of NGF, and in the absence and presence of R3. […] Nor was there any difference in NGF-mediated survival whether R3 exposure occurred before or at the same time as NGF exposure. […]
# PC12 cells [3] = test: Binding of [125I]NGF to PC12 cells; parameters: species or system rat; conditions: co-incubated with [125I]NGF
# Procedure: as §1
sequence,measurement,setting,value
LDALLAALRRIQR [R3],"Effect on NGF-mediated neurite growth, co-incubation, in words",[1],enhancing effect
same,"Rates of [125I]NGF uptake, in words",PC12 cells [2],not influenced
same,"Influence on NGF-mediated cell survival, in words",PC12^nnr5 cells,no influence on NGF-mediated survival
same,"Effect on [125I]NGF binding, in words",PC12 cells [3],no effect on steady-state total or non-displaceable binding
